# US4271163A, “Novel 3,4-diaza-bicyclo[4.1.0]hept-2-en-5-ones, their preparation, and therapeutic agents containing these compounds” (BASF Aktiengesellschaft, priority 1978, dated 1981)
# Tests used:
# narcotized rats = test: Anti-hypertensive effect on narcotized rats; type: in vivo, rat (male Sprague-Dawley); conditions: rats under urethane narcosis, intraperitoneal; for ED (20%): Rattus norvegicus, ip, dose which lowers the blood pressure by 20%, read-out: Reduction in blood pressure, ED 20%; for Reduction in blood pressure, R.A. (relative activity): dihydralazine = 1.00
# Experimental: 3. Anti-hypertensive effect on narcotized rats.
# To test the anti-hypertensive effect, the substances are administered intraperitoneally to groups of 3-5 male Sprague-Dawley rats weighing 240-280 g, under urethane narcosis ([…] given intraperitoneally).
# The measurement of the blood pressure in the carotid artery is carried out by means of Statham transducers. The ED 20% is determined as the dose which lowers the mean carotid blood pressure by 20%.
# (§1) The effective doses or effective concentrations were calculated from the linear relationships between the logarithm of the dose or concentration and the logarithm of the effect, by means of regression analysis.
# (§2) Acetylsalicylic acid was used as the reference substance for the inhibition of thrombocyte aggregation and dihydralazine for the anti-hypertensive effect.
# human thrombocytes = test: Inhibition of the collagen-induced aggregation of human thrombocytes in vitro; type: cell-based; conditions: human thrombocytes in vitro; for EC50: 10 min, concentration which inhibits the collagen-induced aggregation by 50%, 10 minutes incubation, read-out: Inhibition of collagen-induced thrombocyte aggregation in vitro, EC 50%; for Inhibition of aggregation, R.A. (relative activity): acetylsalicylic acid = 1.00
# Experimental: 1. Inhibition of the collagen-induced aggregation of human thrombocytes in vitro.
# (§3) Thrombocyte-rich plasma is obtained by centrifuging venous citrate blood (300 g, 10 minutes duration at 4° C.). The photometric measurement of the thrombocyte aggregation is carried out with addition of MgCl2 (final concentration 10 millimoles/l) and of collagen Stago (final concentration 0.02 mg/ml) in a Born Mk 3 aggregometer. The maximum extinction change/sec is used as a measure of the aggregation.
# The aggregation-inhibiting activity of the substances is tested after an incubation time of 10 minutes.
# The EC 50% is taken to be the concentration causing 50% inhibition of aggregation.
# as §1, §2
# [1] = tested on: spontaneously hypertonic rats; test: Anti-hypertensive effect on spontaneously hypertonic rats; type: in vivo, rat (male spontaneously hypertonic Okamoto); conditions: for ED (20%): Rattus norvegicus, 2 h, dose which lowers the blood pressure by 20% compared to the control group; for ED (20%) / Anti-hypertensive effect, R.A.: oral administration; for Anti-hypertensive effect, R.A.: dihydralazine = 1.00
# Experimental: 4. Anti-hypertensive effect on spontaneously hypertonic rats.
# The substances are administered orally to groups of 4-8 male spontaneously hypertonic Okamoto rats weighing 270-340 g. Before, and 2 hours after, the administration, the systolic blood pressure is measured non-surgically by means of piezo-electric crystal sensors.
# The ED 20% is determined as the dose which lowers the systolic pressure by 20%, taking into account the values found with untreated control animals.
# as §1, §2
# rat thrombocytes = test: Inhibition of the collagen-induced aggregation of rat thrombocytes ex vivo; type: in vivo, rat (male Sprague-Dawley); conditions: rats; for ED (33%): Rattus norvegicus, dose which inhibits the collagen-induced aggregation by 33%, read-out: Inhibition of thrombocyte aggregation, ED 33%; for ED (33%) / Inhibition of thrombocyte aggregation, R.A. (relative activity): oral administration; for Inhibition of thrombocyte aggregation, R.A. (relative activity): acetylsalicylic acid = 1.00; for Inhibition of thrombocyte aggregation after oral administration in vivo (in words): versus acetylsalicylic acid
# Experimental: as §3
# 2. Inhibition of the collagen-induced aggregation of rat thrombocytes ex vivo.
# The substances are administered orally to groups of 10-15 male Sprague-Dawley rat weighing 200-250 g. 1-4 hours after administration, blood is taken under ether narcosis and thrombocyte-rich plasma is obtained by centrifuging. The aggregation after addition of collagen is measured as indicated above. The ED 33% is determined as the dose which inhibits the collagen-induced thrombocyte aggregation by 33%.
# as §1, §2
SMILES,EC50 (human thrombocytes),ED (20%) (narcotized rats),"Reduction in blood pressure, R.A. (relative activity) (narcotized rats)","Inhibition of aggregation, R.A. (relative activity) (human thrombocytes)",ED (20%) [1],Anti-hypertensive effect in spontaneously hypertonic rats after oral administration (in words) [1],"Anti-hypertensive effect, R.A. [1]",ED (33%) (rat thrombocytes),"Inhibition of thrombocyte aggregation, R.A. (relative activity) (rat thrombocytes)",Inhibition of thrombocyte aggregation after oral administration in vivo (in words) (rat thrombocytes)
"O=C(CCl)Nc1ccc(C2=NNC(=O)C3CC23)cc1 (stereo not shown) [Example 12, 2-(p-chloroacetylaminophenyl)-3,4-diaza-bicyclo[4.1.0]hept-2-en-5-one]",0.95 µg/mL,0.299 mg/kg,1.13,518,–,–,–,–,–,–
"O=C(Nc1ccc(C2=NNC(=O)C3CC23)cc1)C1CC1 (stereo not shown) [Example 13, 2-(p-cyclopropylcarbonylaminophenyl)-3,4-diaza-bicyclo[4.1.0]hept-2-en-5-one hemihydrate]",5.57 µg/mL,0.0465 mg/kg,7.25,89,2.78 mg/kg,demonstrable,2.46,2.5 mg/kg,53.60,far surpasses the effect of acetylsalicylic acid
"CC(C)(CBr)C(=O)Nc1ccc(C2=NNC(=O)C3CC23)cc1 (stereo not shown) [Example 22, 2-(p-bromopivaloylaminophenyl)-3,4-diaza-bicyclo[4.1.0]hept-2-en-5-one]",3.47 µg/mL,2.96 mg/kg,0.11,142,–,–,–,–,–,–
"CCC(=O)Nc1ccc(C2=NNC(=O)C3CC23)cc1 (stereo not shown) [Example 11, 2-(p-propionylaminophenyl)-3,4-diaza-bicyclo[4.1.0]hept-2-en-5-one]",0.28 µg/mL,0.134 mg/kg,2.52,1760,10 mg/kg,demonstrable,0.69,1.48 mg/kg,90.54,far surpasses the effect of acetylsalicylic acid
"O=C(CCCl)Nc1ccc(C2=NNC(=O)C3CC23)cc1 (stereo not shown) [Example 19, 2-[p-(3-chloropropionylamino)-phenyl]-3,4-diaza-bicyclo[4.1.0]hept-2-en-5-one]",3.52 µg/mL,0.688 mg/kg,0.49,140,–,–,–,–,–,–

# The next lines start with results.
EC50 (human thrombocytes),SMILES,ED (20%) (narcotized rats),"Reduction in blood pressure, R.A. (relative activity) (narcotized rats)","Inhibition of aggregation, R.A. (relative activity) (human thrombocytes)",ED (20%) [1],Anti-hypertensive effect in spontaneously hypertonic rats after oral administration (in words) [1],"Anti-hypertensive effect, R.A. [1]",ED (33%) (rat thrombocytes),"Inhibition of thrombocyte aggregation, R.A. (relative activity) (rat thrombocytes)",Inhibition of thrombocyte aggregation after oral administration in vivo (in words) (rat thrombocytes)
3.2 µg/mL,"CC(Cl)(Cl)C(=O)Nc1ccc(C2=NNC(=O)C3CC23)cc1 (stereo not shown) [Example 24, 2-[p-(2,2-dichloropropionylamino)-phenyl]-3,4-diaza-bicyclo[4.1.0]hept-2-en-5-one]",10 mg/kg,0.03,154,–,–,–,–,–,–
6.01 µg/mL,"O=C(Nc1ccc(C2=NNC(=O)C3CC23)cc1)c1ccccc1 (stereo not shown) [Example 30, 2-(p-benzoylaminophenyl)-3,4-diaza-bicyclo[4.1.0]hept-2-en-5-one]",> 10 mg/kg,< 0.03,82,–,–,–,–,–,–
1.8 µg/mL,"CC1CC1C(=O)Nc1ccc(C2=NNC(=O)C3CC23)cc1 (stereo not shown) [Example 25, 2-[p-(2-methylcyclopropylcarbonylamino)-phenyl]-3,4-diaza-bicyclo[4.1.0]hept-2-en-5-one]",0.649 mg/kg,0.52,274,–,–,–,–,–,–
2.99 µg/mL,"O=C(Nc1ccc(C2=NNC(=O)C3CC23)cc1)C(Cl)Cl (stereo not shown) [Example 23, 2-(p-dichloroacetylaminophenyl)-3,4-diaza-bicyclo[4.1.0]hept-2-en-5-one]",1.5 mg/kg,0.23,165,–,–,–,–,–,–
1.42 µg/mL,"O=C(Nc1ccc(C2=NNC(=O)C3CC23)cc1)C1CCC1 (stereo not shown) [Example 27, 2-(p-cyclobutylcarbonylaminophenyl)-3,4-diaza-bicyclo[4.1.0]hept-2-en-5-one]",0.398 mg/kg,0.85,348,–,–,–,–,–,–
